Experimental data taken from publication PMC9608620, “Synthesis and Identification of New N,N-Disubstituted Thiourea, and Thiazolidinone Scaffolds Based on Quinolone Moiety as Urease Inhibitor” (Molecules, 2022).
≈ marks a conversion by molar mass, not a printed value. Like-named read-outs stand apart in the source and are kept apart here.

What was measured:
[1] = system: Proteus mirabilis (P. mirabilis) strain; experiment: Antibacterial screening, cup-plate diffusion method; type: cell-based; details: urease-positive clinical isolate from urine, number in brackets, read-out: MIC P. mirabilis (given in brackets)
Protocol: The Proteus mirabilis (P. mirabilis) strain was isolated from the urine of patients suffering from urinary tract infections. […] The test was performed using the cup-plate diffusion method

[2] = target: T1, urease (Jack bean urease) (Canavalia ensiformis, UniProt P07374); experiment: biochemical; type: biochemical
Protocol: In vitro screening and inhibitory studies on urease (Jack bean urease) were determined using the colored Berthelot phenols method, which measures the liberation of ammonia from the reaction. Briefly, the assay mixture containing 1 unit of the enzyme was added to 650 µL of buffer solution (50 mmol phosphate buffer Ph 6.7, 400 mmol sodium salicylate, 10 mmol sodium nitroprusside, and 2 mmol EDTA/L) and mixed with 10 µL of different concentration 0.1–100 Mm of the tested compounds in DMF as a solvent. […] After 15 min incubation at room temperature, 10 µL of 50 mg/L urea solution was added. The mixture was incubated for 0.5 h in a water bath at 37 °C to allow the hydrolysis process.
After complete urea hydrolysis and ammonia liberation, the reaction was stopped by adding 200 µL of the hypochlorite reagent (150 mmol/L sodium hydroxide, 140 mm/L sodium hypochlorite). The liberated ammonia was allowed to complex with the hypochlorite and salicylate for 25 min at 30 °C. The absorbance was measured at 578 nm using a UV/VIS Spectrophotometer (Optizen POP, 5U4608, Daejeon, Korea), and experiments were performed in triplicate in a final volume of 1 mL. […] The percentage inhibition was calculated as the difference of absorbance values with and without the test compounds. The concentration that provokes an inhibition halfway between the minimum and maximum response of each compound (relative IC50) was determined by monitoring the inhibition effect of various concentrations of compounds in the assay.

[3] = target: T1, urease (Jack bean urease); details: read-out: IC50 (µM) Urease; lead compound of the design rationale; cited from earlier work
[4] = Jack bean urease, triplicate, relative IC50, read-out: IC50 (µM) Urease

T1 sequence (P07374 whole entry, looked up): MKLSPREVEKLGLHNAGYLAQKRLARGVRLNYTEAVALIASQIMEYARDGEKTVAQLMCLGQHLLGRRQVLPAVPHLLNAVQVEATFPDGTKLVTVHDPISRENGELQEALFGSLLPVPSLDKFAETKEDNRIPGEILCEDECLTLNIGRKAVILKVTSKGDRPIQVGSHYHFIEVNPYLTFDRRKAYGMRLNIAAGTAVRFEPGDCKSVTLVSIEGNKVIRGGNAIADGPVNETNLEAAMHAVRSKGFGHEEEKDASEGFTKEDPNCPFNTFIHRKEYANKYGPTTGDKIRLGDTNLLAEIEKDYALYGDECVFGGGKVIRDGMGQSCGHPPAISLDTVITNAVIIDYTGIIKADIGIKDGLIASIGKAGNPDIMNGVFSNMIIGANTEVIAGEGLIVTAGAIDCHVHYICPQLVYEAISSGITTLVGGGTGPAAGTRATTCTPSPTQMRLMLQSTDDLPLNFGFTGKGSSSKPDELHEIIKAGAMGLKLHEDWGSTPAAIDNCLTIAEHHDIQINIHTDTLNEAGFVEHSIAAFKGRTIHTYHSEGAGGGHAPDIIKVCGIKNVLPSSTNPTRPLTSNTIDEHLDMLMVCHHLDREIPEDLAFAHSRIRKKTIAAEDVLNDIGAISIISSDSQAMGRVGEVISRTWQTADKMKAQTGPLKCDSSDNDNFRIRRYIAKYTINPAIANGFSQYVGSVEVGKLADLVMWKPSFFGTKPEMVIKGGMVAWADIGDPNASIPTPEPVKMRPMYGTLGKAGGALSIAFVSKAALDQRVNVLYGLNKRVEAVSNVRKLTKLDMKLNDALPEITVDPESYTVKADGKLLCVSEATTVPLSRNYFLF

SMILES	MIC [1] [µg/mL]	IC50 [2] [µM]	melting point [°C]	IC50 [2, 4] [µM]	fold more potent than thiourea and acetohydroxamic acid (urease inhibition) ([2]; relative to the reference inhibitors)	IC50 [3] [µM]
CCOC(=O)/C=C1/S/C(=N\NC(=O)COc2cc(=O)[nH]c3ccccc23)N(Cc2ccccc2)C1=O [Compound 7l, (E)-Ethyl 2-((Z)-3-benzyl-4-oxo-2-(2-(2-((2-oxo-1,2-dihydroquinolin-4-yl)oxy)acetyl)-hydrazono)thiazolidin-5-ylidene)acetate]	200 (≈ 395 µM)	37.21 ± 0.28	249 to 251	–	–	–
C=CCN1C(=O)/C(=C\C(=O)OC)S/C1=N\NC(=O)COc1cc(=O)[nH]c2ccc(C)cc12 [Compound 7f, (E)-Methyl 2-((Z)-3-allyl-2-(2-(2-((6-methyl-2-oxo-1,2-dihydroquinolin-4-yl)oxy)-acetyl)hydrazono)-4-oxothiazolidin-5-ylidene)acetate]	200 (≈ 438 µM)	31.58 ± 0.15	232 to 233	–	–	–
C=CCN1C(=O)/C(=C\C(=O)OC)SC1=NNC(=O)COc1cc(=O)n(C)c2ccccc12 [Compound 7a, (2E)-Methyl 2-(3-allyl-2-(2-(2-((1-methyl-2-oxo-1,2-dihydroquinolin-4-yl)oxy)acetyl)-hydrazono)-4-oxothiazolidin-5-ylidene)acetate]	200 (≈ 438 µM)	36.28 ± 0.1	233 to 235	–	–	–
O=C(COc1cc(=O)[nH]c2ccccc12)NNC(=S)NCc1ccccc1 [Compound 5g, N-Benzyl-2-(2-((2-oxo-1,2-dihydroquinolin-4-yl)oxy)acetyl)hydrazinecarbothioamide]	100 (≈ 261 µM)	11.2 ± 0.27	199 to 201	–	–	–
CC(=O)NO [Acetohydroxamic acid, reference compound]	–	–	–	21 ± 0.94	–	–
C=CCNC(=S)NNC(=O)COc1cc(=O)n(C)c2ccccc12 [Compound 5a, N-Allyl-2-(2-((1-methyl-2-oxo-1,2-dihydroquinolin-4-yl)oxy)acetyl)hydrazinecarbo-thioamide]	100 (≈ 289 µM)	2.48 ± 0.18	177 to 179	–	–	–
CCOC(=O)/C=C1/S/C(=N\NC(=O)COc2cc(=O)[nH]c3ccc(C)cc23)N(Cc2ccccc2)C1=O [Compound 7h, (E)-Ethyl 2-((Z)-3-benzyl-2-(2-(2-((6-methyl-2-oxo-1,2-dihydroquinolin-4-yl)oxy)acetyl)-hydrazono)-4-oxothiazolidin-5-ylidene)acetate]	200 (≈ 384 µM)	31.3 ± 0.36	233 to 235	–	–	–
C=CCNC(=S)NNC(=O)COc1cc(=O)[nH]c2ccccc12 [Compound 5f, N-Allyl-2-(2-((2-oxo-1,2-dihydroquinolin-4-yl)oxy)acetyl)hydrazinecarbothioamide]	100 (≈ 301 µM)	9.45 ± 0.08	169 to 171	–	–	–
Cn1c(=O)cc(OCC(=O)NNC(=S)NCc2ccccc2)c2ccccc21 [Compound 5b, N-Benzyl-2-(2-((1-methyl-2-oxo-1,2-dihydroquinolin-4-yl)oxy)acetyl)hydrazinecarbothioamide]	100 (≈ 252 µM)	2.58 ± 0.1	190 to 192	–	–	–
C=CCNC(=S)NNC(=O)COc1cc(=O)[nH]c2ccc(C)cc12 [Compound 5d, N-Allyl-2-(2-((6-methyl-2-oxo-1,2-dihydroquinolin-4-yl)oxy)acetyl)hydrazine-1-carbothioamide]	100 (≈ 289 µM)	5.29 ± 0.36	174 to 176	–	–	–
COC(=O)/C=C1/SC(=NNC(=O)COc2cc(=O)[nH]c3ccc(C)cc23)N(Cc2ccccc2)C1=O [Compound 7g, (2E)-Methyl 2-(3-benzyl-2-(2-(2-((6-methyl-2-oxo-1,2-dihydroquinolin-4-yl)oxy)acetyl)-hydrazono)-4-oxothiazolidin-5-ylidene)acetate]	200 (≈ 395 µM)	45.43 ± 0.19	241 to 243	–	–	–
CCOC(=O)/C=C1/SC(=NNC(=O)COc2cc(=O)n(C)c3ccccc23)N(c2ccccc2)C1=O [Compound 7d, (2E)-Ethyl 2-(2-(2-(2-((1-methyl-2-oxo-1,2-dihydroquinolin-4-yl)oxy)acetyl)-hydrazono)-4-oxo-3-phenylthiazolidin-5-ylidene)acetate]	200 (≈ 395 µM)	26.8 ± 1.11	223 to 225	–	–	–
Cn1c(=O)cc(OCC(=O)NNC(=S)Nc2ccccc2)c2ccccc21 [Compound 5c, 2-(2-((1-Methyl-2-oxo-1,2-dihydroquinolin-4-yl)oxy)acetyl)-N-phenylhydrazinecarbothioamide]	100 (≈ 261 µM)	1.83 ± 0.79	161 to 163	–	approximately 12 fold	–
C=CCN1C(=O)/C(=C\C(=O)OCC)S/C1=N\NC(=O)COc1cc(=O)[nH]c2ccccc12 [Compound 7i, (2E)-Ethyl 2-(3-allyl-4-oxo-2-(2-(2-((2-oxo-1,2-dihydroquinolin-4-yl)oxy)acetyl)hydra-zono)thiazolidin-5-ylidene)acetate]	200 (≈ 438 µM)	42.8 ± 1.51	–	–	–	–
C=CCN1C(=O)/C(=C\C(=O)OCC)S/C1=N\NC(=O)COc1cc(=O)[nH]c2ccc(C)cc12 [Compound 7e, (E)-Ethyl 2-((Z)-3-allyl-2-(2-(2-((6-methyl-2-oxo-1,2-dihydroquinolin-4-yl)oxy)acetyl)-hydrazono)-4-oxothiazolidin-5-ylidene)acetate]	200 (≈ 425 µM)	29.8 ± 1.31	239 to 241	–	–	–
COC(=O)/C=C1/SC(=NNC(=O)COc2cc(=O)[nH]c3ccccc23)N(Cc2ccccc2)C1=O [Compound 7k, (2E)-Methyl 2-(3-benzyl-4-oxo-2-(2-(2-((2-oxo-1,2-dihydroquinolin-4-yl)oxy)acetyl)-hydrazono)thiazolidin-5-ylidene)acetate]	200 (≈ 406 µM)	49.45 ± 0.09	251 to 253	–	–	–
C=CCN1C(=O)/C(=C\C(=O)OC)SC1=NNC(=O)COc1cc(=O)[nH]c2ccccc12 [Compound 7j, (2E)-Methyl 2-(3-allyl-4-oxo-2-(2-(2-((2-oxo-1,2-dihydroquinolin-4-yl)oxy)acetyl)-hydrazono)thiazolidin-5-ylidene)acetate]	200 (≈ 452 µM)	51.4 ± 0.91	244 to 246	–	–	–
CCNC(=S)NNC(=O)Cn1c(Cc2ccc(F)cc2)nc2ccccc2c1=O [lead I, N-ethyl-2-(2-(2-(4-fluorobenzyl)-4-oxoquinazolin-3(4H)-yl)acetyl)hydrazinecarbothioamide]	–	–	–	–	–	6.02 ± 0.27
COC(=O)/C=C1/SC(=NNC(=O)COc2cc(=O)n(C)c3ccccc23)N(c2ccccc2)C1=O [Compound 7c, (2E)-Methyl 2-(2-(2-(2-((1-methyl-2-oxo-1,2-dihydroquinolin-4-yl)oxy)acetyl)-hydrazono)-4-oxo-3-phenylthiazolidin-5-ylidene)acetate]	200 (≈ 406 µM)	18.8 ± 1.72	229 to 231	–	–	–
CCOC(=O)/C=C1/S/C(=N\NC(=O)COc2cc(=O)n(C)c3ccccc23)N(Cc2ccccc2)C1=O [Compound 7b]	200 (≈ 384 µM)	24 ± 0.88	243 to 245	–	–	–
NC(N)=S [Thiourea]	–	–	–	22.8 ± 1.31	–	–
Cc1ccc2[nH]c(=O)cc(OCC(=O)NNC(=S)NCc3ccccc3)c2c1 [Compound 5e, N-Benzyl-2-(2-((6-methyl-2-oxo-1,2-dihydroquinolin-4-yl)oxy)acetyl)hydrazinecarbothioamide]	100 (≈ 252 µM)	5.6 ± 0.84	183 to 185	–	–	–
